Measured values from PMC10804683, “Identification of the pyridoxal 5′‐phosphate allosteric site in human pyridox(am)ine 5′‐phosphate oxidase” (Protein Science : A Publication of the Protein Society, 2024).
Where a chain is given by its changes, count along the chain named.

Assays:
[1] = biological target: T1, human PNPO F48A/E50L/R258L variant (holo-enzyme) (Homo sapiens, UniProt Q9NVS9, E50L/F48A/R258L); assay: PLP binding by FMN fluorescence changes, holo triple variant; conditions: 100 nM enzyme, read-out: PLP binding KD^FLUO
T1 construct: a main form corresponding to the entire protein; made in house; host or cells: E. coli BL21(DE3)
T1 sequence (Q9NVS9 1-261 F48A/E50L/R258L): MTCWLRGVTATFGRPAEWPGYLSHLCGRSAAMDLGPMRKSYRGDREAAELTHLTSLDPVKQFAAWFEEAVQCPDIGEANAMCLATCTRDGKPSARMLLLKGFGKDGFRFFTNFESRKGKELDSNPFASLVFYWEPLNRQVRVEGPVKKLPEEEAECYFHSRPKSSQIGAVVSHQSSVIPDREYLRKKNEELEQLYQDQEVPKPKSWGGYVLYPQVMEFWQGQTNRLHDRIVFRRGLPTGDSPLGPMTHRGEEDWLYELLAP
Excerpt: (§1) PLP binding to PNPO can be detected and quantitatively measured using differential scanning fluorimetry (DSF) and also by measuring FMN fluorescence changes. We had previously attributed DSF changes to PLP binding at the active site, while FMN fluorescence changes were attributed to PLP binding at the allosteric site (Barile et al., [2019], [2020]). Previous experiments carried out with the PNPO R161C variant, affecting a residue that is essential for substrate binding and catalysis (and therefore also for PLP binding at the active site), confirms that DSF measurements only report PLP binding at the active site (Barile et al., [2021]; Table 1). […] We expected to observe no FMN fluorescence changes upon titration of the variants with PLP. However, this was not the case, and the dissociation constant values obtained by observing the FMN fluorescence emission were only up to threefold larger in the variants with respect to wild type PNPO (Figure 3). […] To check the second possibility, we measured intrinsic fluorescence changes of wild type and variant apo‐forms (i.e., without FMN) upon PLP titration. […]
(§2) Analyses of PLP binding, based on FMN fluorescence increase observed upon binding of PLP to PNPO, were performed as described in Barile et al. ([2020]). […] Emission spectra were recorded from […], with excitation and emission slits set at 3 and 5 nm, respectively. […]

[2] = biological target: T2, human PNPO F48A/E50L/R258L variant (Homo sapiens, UniProt Q9NVS9, E50L/F48A/R258L); assay: PLP inhibition kinetics of PNP oxidation, triple variant; type: biochemical; conditions: Na-HEPES pH 7.6, 2 μM enzyme, PLP 0–16 μM
T2 construct: a main form corresponding to the entire protein; made in house; host or cells: E. coli BL21(DE3)
T2 sequence (Q9NVS9 1-261 F48A/E50L/R258L): T1 sequence (Q9NVS9 1-261 F48A/E50L/R258L)
Protocol: This is a general inhibition mechanism that takes into account the possibility of PLP binding to both the active and allosteric sites. PLP binding at the active site gives a complete, competitive inhibition, whereas PLP binding at the allosteric site yields a substrate‐enzyme‐PLP ternary complex that is still catalytically active, although k CAT is reduced by a coefficient whose value is around 0.15. A thorough inhibition kinetic characterization was carried out with the wild type, F48A, F48A/E50L/R258L, and F48A/E50L/H248N/R258L PNPO forms, so as to evaluate the effect of the variations on the allosteric properties of the enzyme. The initial velocity of PNP conversion into PLP was measured in Na‐HEPES buffer (in which PLP is allowed to accumulate) by varying substrate concentration at different, fixed exogenous PLP concentrations, using 2 μM enzyme. A series of saturation curves were obtained that were used to fit the Michaelis–Menten equation (Figure 5), acquiring apparent V MAX and K M values as a function of PLP concentration. […]
FIGURE 5 Characterization of PLP inhibition. Upper panels: The initial velocity of the reaction was measured with 2 μM wild type (a), and the F48A (b), F48A/E50L/R258L (c), and F48A/E50L/H248N/R258L (d) PNPO variants, varying PNP concentration while keeping exogenous PLP fixed at different concentrations (0, 0.25, 0.5, 1, 2, 4, 8, and 16 μM). […]

[3] = biological target: T3, human PNPO F48A/E50L/H248N/R258L variant (holo-enzyme) (Homo sapiens, UniProt Q9NVS9, E50L/F48A/H248N/R258L); assay: PLP binding by FMN fluorescence changes, holo quadruple variant; conditions: 100 nM enzyme, read-out: PLP binding KD^FLUO
T3 construct: a main form corresponding to the entire protein; made in house; host or cells: E. coli BL21(DE3)
T3 sequence (Q9NVS9 1-261 F48A/E50L/H248N/R258L): T1 sequence (Q9NVS9 1-261 F48A/E50L/R258L) with H248N
Excerpt: as §1, §2

Kd [1]: 1380 ± 80 nM
type of inhibition of PNP oxidation by PLP [2]: pure competitive inhibition
Kd [3]: 2850 ± 250 nM
Compound: Cc1ncc(COP(=O)(O)O)c(C=O)c1O [PLP, pyridoxal 5′‐phosphate]
